The structures appear in SMILES notation.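 Briefly, cells in 96-well plates were exposed to five compound concentrations for 48 h, and endpoints were estimated by linear interpolation. Abbreviation: GI50, concentration required for 50% inhibition of growth.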 Active and inactive are the calls of the source. No stated cut-off is given here; in the data, active = GI50 up to about 1.1 µM and inactive = higher. Where a SMILES comes first, the peptide text is derived from it. [ ]: non-standard residue; d: D form. The star is where a group is joined. Phe(2-OMe) = COc1ccccc1C[CH](N)C(=O)O; Cbz = O=C(OCc1ccccc1)*; OBn = c1ccc(CO*)cc1

Here are results for 51 compounds from ChEMBL document CHEMBL1201862, “PubChem BioAssay data set” (2004).

Assay in all cases: NCI tumour cell line growth inhibition, 48 h
Assay [1] has as its system BT-549.
In assay [2] the test system is NCI/ADR-RES.
Assay [3] concerns Hs-578T.
The test system of assay [4] is DLD-1.
Assay [5] concerns KM-20L2.
Assay [6] relates to M19-MEL.
Assay [7] relates to LXFL 529.

Consider `CCOC(=O)/C=C(/C(=O)OCC)n1ccc(=O)n(Cc2cn(CCCCOC(C)=O)nn2)c1=O`, for which the GI50 in assay [1], in assay [2] and in assay [3] was > 100 µM (inactive) in each case.
Regarding `Cn1c(-c2ccc(/N=N/Nc3ccc(-c4n[nH]c(=S)n4C)cc3)cc2)n[nH]c1=S`, the GI50 is 3.9 µM (inactive) in assay [1], > 100 µM (inactive) in assay [2] and 32.1 µM (inactive) in assay [3].
Take `Cc1cc(N(CCC#N)CCC#N)ccc1C(/N=N/c1ccc(C(=O)O)cc1)=N\NC(=O)c1ccccc1`: the values for the GI50 in assay [1], in assay [2] and in assay [3] were 55.6 µM (inactive), 66.8 µM (inactive) and 14.4 µM (inactive), respectively.
For the compound `NS(=O)(=O)c1nnc(NS(=O)(=O)c2ccccc2C(=O)O)s1`, the GI50 in assay [1], in assay [2] and in assay [3] was > 100 µM (inactive) throughout.
As to `COc1ccc2c(c1)C(N)CC2=O` (stereo unspecified), the GI50 in assay [1], in assay [2] and in assay [3] was > 100 µM (inactive) each time.
Take `CCOC(=O)NC(Nc1cccc(F)c1)(C(F)(F)F)C(F)(F)F`: the GI50 in assay [1], in assay [2] and in assay [3] was > 100 µM (inactive) each time.
With `COc1ccc(-n2c3c(c4cc(O)ccc42)Cc2ccccc2C3=O)cc1`, the results for the GI50 in assay [1], in assay [2] and in assay [3] were > 100 µM (inactive), 73.8 µM (inactive) and > 100 µM (inactive), respectively.
For the compound `O=C(Cn1c2ccc(Br)cc2c2nc3ccccc3nc21)NC1CCCCC1`, the GI50 is > 100 µM (inactive) in assay [1], > 100 µM (inactive) in assay [2] and 43.3 µM (inactive) in assay [3].
In the case of `COc1cc2c(cc1C)NC(=O)/C2=C/c1c(Cl)[nH]c2ccccc12`, the GI50 in assay [1] is 2.74 µM (inactive); in assay [2], 2.62 µM (inactive); in assay [3] it was 3.26 µM (inactive).
`CN(C)CCNc1ccc2c(=O)n(CCN(C)C)c(=O)n3c4ccc(O)cc4c(=O)c1c23`: the GI50 in assay [1] is 0.292 µM (active); in assay [2], 0.546 µM (active); in assay [3], 0.161 µM (active).
As to `O=C1CSc2ccncc2N1`, the GI50 in assay [4], in assay [5], in assay [6] and in assay [7] was > 100 µM (inactive) in each case.
Turning to `CCN(CC)CCn1ncc2c(N)ncnc21`, the GI50 in assay [1], in assay [2] and in assay [3] was > 100 µM (inactive) in each case.
`O=c1[nH]c2cc3cccnc3c(Cl)c2nc1CBr`: the values for the GI50 in assay [1], in assay [2] and in assay [3] were 26.5 µM (inactive), 20 µM (inactive) and 13.1 µM (inactive), respectively.
As for `COC(=O)C(Cc1ccccc1OC)NC(=O)C(CC(=O)OCc1ccccc1)NC(=O)OCc1ccccc1` (stereo unspecified) (Cbz-Asp(OBn)-[Phe(2-OMe)]-OMe; configuration not given here), the GI50 in assay [1] and in assay [3] was > 100 µM (inactive) throughout.
Take `Clc1cc(-c2ccccc2)nc2ccccc12`: the GI50 is 18.8 µM (inactive) in assay [1], 33.6 µM (inactive) in assay [2] and 30.1 µM (inactive) in assay [3].
Taken in the same sequence, the figures for `O=[N+]([O-])c1ccc(N/N=C/c2ccc(OCCCCCCCCCCCO)cc2)c([N+](=O)[O-])c1` were 5.94 µM (inactive), 2.73 µM (inactive) and 1.32 µM (inactive).
As to `C=C(C1=CC(=O)C(C)(C)O1)[C@@H]1CC=C([C@@H]2CC[C@H]3[C@@]2(C)CC[C@H]2C(C)(C)C(=O)[C@H](O)C[C@]32C)[C@H](O)O1`, the GI50 in assay [1] is 5.38 µM (inactive); in assay [2], 3.98 µM (inactive); in assay [3], 3.27 µM (inactive).
In the case of `CCOC(=O)Nc1nn[nH]c1Cl`, the GI50 in assay [1], in assay [2] and in assay [3] was > 100 µM (inactive) each time.
Take `N#Cc1nc(-c2ccsc2)oc1N`: the GI50 in assay [3] was > 100 µM (inactive).
`CC(CO)(CO)N1C(=O)C2C3c4ccccc4C(c4ccccc43)C2C1=O` (stereo unspecified): the GI50 in assay [1] was 80.9 µM (inactive); in assay [2], > 100 µM (inactive); in assay [3], > 100 µM (inactive).
With `CC(NNC(=O)c1ccc[n+]([BH2-]C#N)c1)c1ccccc1` (stereo unspecified), the GI50 in assay [1] and in assay [2] was > 100 µM (inactive) throughout.
Regarding `N#CCCN(CCC#N)c1ccc(/C=C2\SC(=S)NC2=O)cc1Br`, the GI50 was 37.3 µM (inactive) in assay [1], > 100 µM (inactive) in assay [2] and 0.598 µM (active) in assay [3].
Turning to `O=[N+]([O-])c1ccc(N2CCC(CCCC3CCN(c4ccc([N+](=O)[O-])cc4[N+](=O)[O-])CC3)CC2)c([N+](=O)[O-])c1`, the figures for the GI50 in assay [1], in assay [2] and in assay [3] were 24.4 µM (inactive), 20.7 µM (inactive) and 34.8 µM (inactive), respectively.
The like results for `COC(=O)C1([C@@H]2C[C@@H](O)[C@]3(C)CC/C=C(\C)CCC[C@H](C)[C@H](O)[C@@H]2O3)CC1` were, in that order, 53.7 µM (inactive), 39.4 µM (inactive) and 63.2 µM (inactive).
With `COC1=CC23CCCN2CCc2cc4c(cc2C3C1O)OCO4` (stereo unspecified), the values for the GI50 in assay [1], in assay [2] and in assay [3] were > 100 µM (inactive), > 100 µM (inactive) and 82 µM (inactive), respectively.
`C=C(C)CCN(C(=O)OC(C)(C)C)c1cc(C(C)C)co1`: the GI50 in assay [1] was 12.2 µM (inactive); in assay [2], 24.2 µM (inactive).
Take `COc1cc2c(/C=C3/C(=O)Nc4ccc(O)cc43)c(Cl)n(Cc3ccccc3)c2cc1C`: the values for the GI50 in assay [2] and in assay [3] were 0.574 µM (active) and 0.354 µM (active), respectively.
Regarding `COC(=O)c1c(O)ccc2c1c1c(n2Cc2ccccc2OC)C(=O)c2ccccc2C1=O`, the GI50 in assay [1] is 13.3 µM (inactive); in assay [2] it was 6.95 µM (inactive); in assay [3], 18 µM (inactive).
`N#CC(C#N)=C1SC(=N\c2ccccc2)/C(=N/c2ccccc2)N1c1ccccc1`: the figures for the GI50 in assay [1], in assay [2] and in assay [3] were 8.24 µM (inactive), 26.4 µM (inactive) and 25.3 µM (inactive), respectively.
Regarding `COc1cc(CNc2nc3ccccc3nc2C(=O)O)cc(OC)c1OC`, the GI50 was > 100 µM (inactive) in assay [1], > 100 µM (inactive) in assay [2] and 42.1 µM (inactive) in assay [3].
In the case of `Clc1nc(NCCc2ccccc2)c2ncn(-c3ccccc3)c2n1`, the GI50 was 23.1 µM (inactive) in assay [1], 20.6 µM (inactive) in assay [2] and 24.4 µM (inactive) in assay [3].
For `CCOC(=O)c1sc2c(C(=O)OCC)n3cc(C)cc(C)c3c2c1O`, the GI50 in assay [4], in assay [5], in assay [6] and in assay [7] was > 100 µM (inactive) each time.
For the compound `CCN(CC)CCCC(C)NC(=O)c1cc(-c2nccn2C)nc2ccc(C)cc12` (stereo unspecified), the GI50 in assay [1] and in assay [2] was > 100 µM (inactive) in each case.
Take `CC1=C(C(=O)OC(C)(C)C)C(c2ccc([N+](=O)[O-])cc2)C(C(=O)OC(C)(C)C)=C(C)N1`: the GI50 in assay [1] was 28 µM (inactive); in assay [3] it was 20.2 µM (inactive).
Turning to `CCC1(CC)C(=O)NN(C(=O)c2ccccc2)C1=O`, the GI50 in assay [1], in assay [2] and in assay [3] was > 100 µM (inactive) each time.
`Cc1cc2c(c(C(=O)NCC(=O)O)c1)Oc1c(cc(C)cc1C(=O)NCC(=O)O)S2`: the GI50 in assay [1], in assay [2] and in assay [3] was > 100 µM (inactive) in each case.
As for `CN(C)c1ccc(C(=NNC(=O)c2cc3ccccc3[nH]2)c2ccc(N(C)C)cc2)cc1`, the GI50 in assay [1] was 3.69 µM (inactive); in assay [2] it was 0.177 µM (active); in assay [3] it was 0.359 µM (active).
As to `COc1cc(OCc2ccc3nc(OC)c(OC)nc3c2)cc(OC)c1OC`, the figures for the GI50 in assay [1], in assay [2] and in assay [3] were > 3.72 µM (inactive), > 10 µM (inactive) and > 10 µM (inactive), respectively.
As to `Cc1c2cnccc2nc2[nH]c3ccncc3c12`, the values for the GI50 in assay [1] and in assay [3] were 6.92 µM (inactive) and 16.6 µM (inactive), respectively.
As for `CCCNC(=S)NNC(=O)CSc1nc(-c2ccccc2)c(-c2ccccc2)[nH]1`, the GI50 is 70.3 µM (inactive) in assay [4], 84.1 µM (inactive) in assay [5], 45 µM (inactive) in assay [6] and 27.9 µM (inactive) in assay [7].
For the compound `Cc1ccc2ccc(O)cc2c1`, the GI50 is 26.7 µM (inactive) in assay [1], 24.8 µM (inactive) in assay [2] and 37.9 µM (inactive) in assay [3].
As to `Cc1cccc2nc3cccc(C(=O)NCCC[N+](C)(CCCNC(=O)c4cccc5nc6cccc(C)c6nc45)Cc4c([N+](=O)[O-])ncn4C)c3nc12`, the results for the GI50 in assay [1], in assay [2] and in assay [3] were 41.7 µM (inactive), 38.6 µM (inactive) and > 1100 µM (inactive), respectively.
Turning to `CCCCN(CC)C(=O)C(=O)Cc1nc2ccc(C(=O)c3ccccc3)cc2nc1O`, the GI50 in assay [4] is > 100 µM (inactive); in assay [5] it was 31.7 µM (inactive); in assay [6], > 100 µM (inactive); in assay [7] it was 47.1 µM (inactive).
`O=C1Cc2c([nH]c3ccc(C(=O)O)cc23)-c2ccccc2N1`: the GI50 in assay [1], in assay [2] and in assay [3] was > 100 µM (inactive) in each case.
Consider `N#Cc1nc(CN2C(=O)c3ccccc3C2=O)oc1N`, for which the GI50 in assay [2] and in assay [3] was > 100 µM (inactive) in each case.
Take `CCN(CC)C(=S)/N=C(\SC(=S)N(CC)CC)c1ccccc1`: the results for the GI50 in assay [1], in assay [2] and in assay [3] were > 60.4 µM (inactive), 35.5 µM (inactive) and 35.4 µM (inactive), respectively.
`N#Cc1c(-c2ccc(Cl)cc2Cl)nc2[nH]nc(S)n2c1=O`: the GI50 in assay [1], in assay [2] and in assay [3] was > 100 µM (inactive) each time.
In the case of `O=c1[nH]nc(Cc2ccccc2)n1/N=C/c1cccs1`, the GI50 in assay [1], in assay [2] and in assay [3] was > 100 µM (inactive) in each case.
In the case of `COC(=O)C1=CN(C2CCCCC2)C2(c3ccccc3)c3ccccc3C(=O)OC(=O)C12` (stereo unspecified), the GI50 in assay [1] and in assay [2] was > 100 µM (inactive) throughout.
For the compound `Cc1ccccc1NC(=O)C(=O)Cc1cnc2ccccc2n1`, the GI50 in assay [1], in assay [2] and in assay [3] was > 100 µM (inactive) in each case.
`CC(CCCC1SCC2NC(=O)NC21)C(=O)O` (stereo unspecified): the GI50 in assay [1], in assay [2] and in assay [3] was > 100 µM (inactive) throughout.
